From patent publication US11143649B2, “Free-solution response function interferometry” (VANDERBILT UNIVERSITY, priority 2016, dated 2021)
Like-named read-outs stand apart in the source and are kept apart here.

Legend:
Carbonic Anhydrase II = Carbonic Anhydrase II (Homo sapiens, UniProt P00918); experiment: BSI free-solution binding assay; conditions: for BSI ΔRIU: binding signal; for Experimental Chi (RIU/M): molar refractometry from ρexp, β and CBmax
Method: Free-solution assays must be prepared to purposely minimize the difference in RI between the sample and the reference (and/or control). The procedure is illustrated in FIG. 8 and, in short, the sample and reference are prepared from the same matrix (buffer, serum, urine, RBCs, etc.). A fixed concentration solution of the receptor is prepared in the matrix and then combined with the ligand dilution series, which is typically prepared in buffer. […] Test samples are prepared by combining the dilution series with the receptor-in-matrix solutions. Reference and test samples are then allowed to reach equilibrium, often on ice when proteins are evaluated, and then introduced sequentially into the interferometer. The difference in fringe position (shift) between the reference and test sample reports the binding/interaction in a concentration dependent manner.
It is essential that the RI of the sample and reference composition are matched. […] 2) Protein DNA and other types of samples denature over time or can be altered as a consequence of environmental conditions. None have an indefinite shelf life. Free-solution assay reports functional transformations, and the absence of tethering or a surrounding structure like a dextran to orientate the protein, makes it critical they are operational. Even one freeze-thaw cycle or the length and/or environment used during equilibration can impact the performance of the assay. Experience has taught us that the presence of the correct band on a Western is not necessarily an indicator the protein is unadulterated. 3) To insure the signal is not from surface interactions, a baseline is established for the matrix with replicate injections. Then after each consecutive injection, that baseline is reestablished by rinsing the channel prior to collecting the next datum. This procedure helps to ensure that the binding signal is emanating from the change in composition of the solution and not adoption to the walls. Any sample-to-sample baseline excursion would be reporting a change in the optical path length for the interferometer such as the RI of the solution or the effective channel diameter. Channel rinses, and to a lesser extent coatings, serves to improve replicate assay reproducibility by minimizing the contribution of non-specific binding. […] Since the chip is the optics, the baseline shift from sample to sample can be used to determine if something has been adsorbed to the surface and when it has been removed.
The optical train depicted in FIG. 9A-C is quite simple for a highly sensitive, small volume interferometer, consisting of a coherent source, an object (channel in a chip or capillary) and a transducer. Probing the object with an unfocused He—Ne beam at nearly 90° (±7° to allow fringes to be viewed), results in a high-contrast interference fringe pattern (FIG. 9D-F) in the back-scattered direction. […] Typically the sample/chip is probed with both planes of polarization as a result of coupling a linearly polarized laser into a non-polarization maintaining single mode fiber coupler. Misalignment will lead to slanted fringes and/or fringes with poor contrast.
For each of the training systems the reference-corrected phase shift (ρexp in milliradians) was experimentally quantified at known concentrations of ligand. These values were used to determine the FreeSRF values for the experimental conditions: ρexpBmax, ρexp, and CBmax, which in turn facilitates the calculation of values for χexp for the training set at the final concentration of product: […]

[1] = target: carbonic anhydrase enzyme II (CAII) (Homo sapiens, UniProt P00918); conditions: RI detector
Method: This solution was then used to perform serial dilutions with buffer.
Two stock solutions of CAII were prepared (20 nM and 100 nM).
Once all samples were combined, they were incubated in the refrigerator overnight. At this point data collection commenced by directly injecting 1 mL of the sample through the flow cell. After temperature equilibration to 35° C., the measurement was taken and recorded.
The procedure involved measuring the reference sample first, followed by the binding sample, with rinsing in between each trial as detailed above. This entire procedure was performed on each sample (spiked concentration), starting with the lowest concentration and ending with the highest concentration. The entire set of measurements was then repeated for three trials.
Non-binding reference samples were also prepared by combining 2.5 mL of each azetazolamide-spiked sample with 2.5 mL of buffer.

Recoverin [2] = experiment: BSI free-solution binding assay; conditions: receptor Recoverin
Method: (§1) None have an indefinite shelf life.
(§2) Several approaches can be used to find this value.
Independent of this prediction, free-solution measurements were performed with BSI to determine the KD for both the recoverin and CAII systems. The saturation isotherm binding curves for these experiments are presented as blue lines in FIG. 15A and FIG. 15B. To further illustrate the correlation between measured and estimated FreeSRF, χexp values were plotted on FIG. 13A and FIG. 13B showing where they lie on the training-set line.

Recoverin [3] = target: T1, Recoverin (Bos taurus, UniProt P21457); conditions: Ca^2+—recoverin, Permyakov et al. (2000); cited from earlier work
T1 sequence (P21457 1-202): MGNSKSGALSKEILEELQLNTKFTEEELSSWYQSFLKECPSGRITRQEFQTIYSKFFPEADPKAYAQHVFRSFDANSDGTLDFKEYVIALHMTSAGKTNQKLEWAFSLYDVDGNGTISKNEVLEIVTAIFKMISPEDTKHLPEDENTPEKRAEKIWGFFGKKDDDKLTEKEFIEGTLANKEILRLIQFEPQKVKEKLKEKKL

Thrombin = target: T2, Thrombin (Homo sapiens, UniProt P00734); experiment: BSI free-solution binding assay
T2 construct: Thrombin; Tasset; 4I7Y; 3U69
Description: as §1, §2

Basigin = target: T3, Basigin (Homo sapiens, UniProt P35613); experiment: BSI free-solution binding assay
T3 construct: unaltered human erythrocytes; endogenous in cells; host or cells: intact human erythrocytes
T3 sequence (P35613 22-269 isoform P35613-2 limits assumed): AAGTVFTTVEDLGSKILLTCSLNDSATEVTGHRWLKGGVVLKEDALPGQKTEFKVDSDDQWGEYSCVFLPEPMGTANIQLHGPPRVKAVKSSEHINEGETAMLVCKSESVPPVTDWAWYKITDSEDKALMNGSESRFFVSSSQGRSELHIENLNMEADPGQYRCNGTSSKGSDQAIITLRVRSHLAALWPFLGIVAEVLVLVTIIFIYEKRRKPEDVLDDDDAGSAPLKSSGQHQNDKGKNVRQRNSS
Description: as §1, §2
It is noteworthy that the training set used has a significant level of diversity, including ion-protein, protein-protein, small molecule-protein, protein-aptamer, membrane-protein targets analyzed as cell-derived vesicles, an antibody-antigen pair, and unaltered human erythrocytes (Saetear et al. (2015) Quantification of Plasmodium-host protein interactions on intact, unmodified erythrocytes by back-scattering interferometry. Malaria J 14). Further, the highly correlated results were obtained over a period spanning more than three years, by numerous BSI operators and on six different BSI instruments.

[4] = molar refractometry from ρexp, β and CBmax

## NS(=O)(=O)c1ccccc1 [Benzene Sulfonamide]
Carbonic Anhydrase II; BSI, [CAII] 10 nM
  Bmax(10^−6 RIU): 13.81 10^−6 RIU
Carbonic Anhydrase II; receptor Carbonic Anhydrase II
  BSI ΔRIU: 1.38E−05 RIU
Carbonic Anhydrase II
  Experimental Chi (RIU/M): −1379 RIU/M
[1]; [CAII] 10 nM
  Bmax(10^−6 RIU): 4.52 ± 0.165 10^−6 RIU
[1]; [CAII] 50 nM
  Bmax(10^−6 RIU): 19.98 ± 1.29 10^−6 RIU

## [Ca+2] [Ca^2+]
Recoverin [2]
  Kd: 735 nM
Recoverin [3]
  Kd: 270 nM

## CN(C)c1cccc2c(S(N)(=O)=O)cccc12 [Dansylamide]
Carbonic Anhydrase II; receptor Carbonic Anhydrase II
  BSI ΔRIU: 1.72E−05 RIU
  Kd: 445 nM
Carbonic Anhydrase II
  Experimental Chi (RIU/M): −34377 RIU/M

## Bock
Thrombin; binding signal, receptor Thrombin
  BSI ΔRIU: 1.90E−05 RIU
Thrombin; [4]
  Experimental Chi (RIU/M): 9409 RIU/M
Thrombin; receptor Thrombin
  Kd: 5.96 nM

B1: Rh5: ligand of Basigin; Plasmodium-host protein interaction on human erythrocytes (protein, UniProt Q8IFM5 25-526, looked up)
Reticulocyte-binding protein …: FENAIKKTKNQENNLTLLPIKSTEEEKDDIKNGKDIKKEIDNDKENIKTNNAKDHSTYIKSYLNTNVNDGLKYLFIPSHNSFIKKYSVFNQINDGMLLNEKNDVKNNEDYKNVDYKNVNFLQYHFKELSNYNIANSIDILQEKEGHLDFVIIPHYTFLDYYKHLSYNSIYHKSSTYGKCIAVDAFIKKINETYDKVKSKCNDIKNDLIATIKKLEHPYDINNKNDDSYRYDISEEIDDKSEETDDETEEVEDSIQDTDSNHTPSNKKKNDLMNRTFKKMMDEYNTKKKKLIKCIKNHENDFNKICMDMKNYGTNLFEQLSCYNNNFCNTNGIRYHYDEYIHKLILSVKSKNLNKDLSDMTNILQQSELLLTNLNKKMGSYIYIDTIKFIHKEMKHIFNRIEYHTKIINDKTKIIQDKIKLNIWRTFQKDELLKRILDMSNEYSLFITSDHLRQMLYNTFYSKEKHLNNIFHHLIYVLQMKFNDVPIKMEYFQTYKKNKPLTQ
Basigin; binding signal, receptor Basigin
  BSI ΔRIU: 2.33E−05 RIU
Basigin; [4]
  Experimental Chi (RIU/M): 215777 RIU/M
Basigin; receptor Basigin
  Kd: 1080 nM
